Results: US7589104B2, “Tricyclic-bridged piperidinyline derivatives as §-opioid modulators” (Janssen Pharmaceutica NV, priority 2004, dated 2009)

Target: T1, delta opioid receptor (Rattus norvegicus, UniProt P33533)
T1 construct: from tissue; host or cells: forebrain of male Wistar rats (Charles River)
Experiment: Rat Brain Delta Opioid Receptor Binding Assay

T1 sequence (P33533 whole entry): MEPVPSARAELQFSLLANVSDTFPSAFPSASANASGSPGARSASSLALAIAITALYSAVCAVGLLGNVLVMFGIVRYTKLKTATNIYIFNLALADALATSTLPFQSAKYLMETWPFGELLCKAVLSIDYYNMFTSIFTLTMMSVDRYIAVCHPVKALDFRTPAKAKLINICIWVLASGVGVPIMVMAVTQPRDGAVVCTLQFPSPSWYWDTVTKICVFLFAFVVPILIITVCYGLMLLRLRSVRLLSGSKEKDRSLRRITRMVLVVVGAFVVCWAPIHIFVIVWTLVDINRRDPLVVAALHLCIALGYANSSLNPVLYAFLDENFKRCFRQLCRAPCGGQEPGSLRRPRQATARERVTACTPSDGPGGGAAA

CC(=O)Nc1ccccc1-c1ccc2c(c1)Oc1c(O)cccc1C2C1CC2CCC(C1)N2Cc1ccccn1 (stereo not drawn) [Compound 6l, N-{2-[5-Hydroxy-9-(8-pyridin-2-ylmethyl-8-aza-bicyclo[3.2.1]oct-3-yl)-9H-xanthen-3-yl]-phenyl}-acetamide]
Ki: 49.9 nM

O=C(c1ccc2c(c1)Oc1ccccc1C2C1CC2CCC(C1)N2)N1CCC(O)C1 (stereo not drawn) [Compound 3o, [9-(8-Aza-bicyclo[3.2.1]oct-3-yl)-9H-xanthen-3-yl]-(3-hydroxy-pyrrolidin-1-yl)-methanone]
Ki: 1210 nM

c1ccc2c(c1)Oc1cc(-c3nnn[nH]3)ccc1C2C1CC2CCC(C1)N2Cc1ccoc1 (stereo not drawn) [Compound 6j, 8-Furan-3-ylmethyl-3-[3-(1H-tetrazol-5-yl)-9H-xanthen-9-yl]-8-aza-bicyclo[3.2.1]octane]
Ki: 20.6 nM

Oc1cccc2c1Oc1cc(-c3cccnc3)ccc1C2C1CC2CCC(C1)N2Cc1ccccn1 (stereo not drawn) [Compound 11k, 6-Pyridin-3-yl-9-(8-pyridin-2-ylmethyl-8-aza-bicyclo[3.2.1]oct-3-yl)-9H-xanthen-4-ol]
Ki: 3.05 nM

c1ccc(CN2C3CCC2CC(C2c4ccccc4Oc4cc(-c5nnn[nH]5)ccc42)C3)nc1 (stereo not drawn) [Compound 8j, 8-Pyridin-2-ylmethyl-3-[3-(1H-tetrazol-5-yl)-9H-xanthen-9-yl]-8-aza-bicyclo[3.2.1]octane]
Ki: 178 nM

Oc1cccc2c1Oc1cc(-c3cccnc3)ccc1C2C1CC2CCC(C1)N2Cc1cccs1 (stereo not drawn) [Compound 10k, 6-Pyridin-3-yl-9-(8-thiophen-2-ylmethyl-8-aza-bicyclo[3.2.1]oct-3-yl)-9H-xanthen-4-ol]
Ki: 45.2 nM

CC(=O)Nc1ccccc1-c1ccc2c(c1)Oc1c(O)cccc1C2C1CC2CCC(C1)N2Cc1cccs1 (stereo not drawn) [Compound 5l, N-{2-[5-Hydroxy-9-(8-thiophen-2-ylmethyl-8-aza-bicyclo[3.2.1]oct-3-yl)-9H-xanthen-3-yl]-phenyl}-acetamide]
Ki: 6.51 nM

CC(=O)Nc1ccccc1-c1ccc2c(c1)Oc1c(O)cccc1C2C1CC2CCC(C1)N2CCc1ccccc1 (stereo not drawn) [Compound 8l, N-{2-[5-Hydroxy-9-(8-phenethyl-8-aza-bicyclo[3.2.1]oct-3-yl)-9H-xanthen-3-yl]-phenyl}-acetamide]
Ki: 26.6 nM

CCN(CC)C(=N)c1ccc2c(c1)Oc1ccccc1C2C1CC2CCC(C1)N2Cc1ccccn1 (stereo not drawn) [Compound 7m, N,N-Diethyl-9-(8-pyridin-2-ylmethyl-8-aza-bicyclo[3.2.1]oct-3-yl)-9H-xanthene-3-carboxamidine]
Ki: 17.3 nM

CC(=O)Nc1ccccc1-c1ccc2c(c1)Oc1c(O)cccc1C2C1CC2CCC(C1)N2Cc1ccccc1 (stereo not drawn) [Compound 7l, N-{2-[9-(8-Benzyl-8-aza-bicyclo[3.2.1]oct-3-yl)-5-hydroxy-9H-xanthen-3-yl]-phenyl}-acetamide]
Ki: 21.8 nM

Oc1cccc2c1Oc1cc(-c3cccnc3)ccc1C2C1CC2CCC(C1)N2Cc1ccoc1 (stereo not drawn) [Compound 9k, 9-(8-Furan-3-ylmethyl-8-aza-bicyclo[3.2.1]oct-3-yl)-6-pyridin-3-yl-9H-xanthen-4-ol]
Ki: 50.3 nM

CCN(CC)C(=N)c1ccc2c(c1)Oc1ccccc1C2C1CC2CCC(C1)N2Cc1cccs1 (stereo not drawn) [Compound 6m, N,N-Diethyl-9-(8-thiophen-2-ylmethyl-8-aza-bicyclo[3.2.1]oct-3-yl)-9H-xanthene-3-carboxamidine]
Ki: 162 nM

c1ccc(CN2C3CCC2CC(C2c4ccccc4Oc4cc(-c5nnn[nH]5)ccc42)C3)cc1 (stereo not drawn) [Compound 9j, 8-Benzyl-3-[3-(1H-tetrazol-5-yl)-9H-xanthen-9-yl]-8-aza-bicyclo[3.2.1]octane]
Ki: 176 nM

c1csc(CN2C3CCC2CC(C2c4ccccc4Oc4cc(-c5nnn[nH]5)ccc42)C3)c1 (stereo not drawn) [Compound 7j, 3-[3-(1H-Tetrazol-5-yl)-9H-xanthen-9-yl]-8-thiophen-2-ylmethyl-8-aza-bicyclo[3.2.1]octane]
Ki: 13.8 nM

CC(=O)Nc1ccccc1-c1ccc2c(c1)Oc1c(O)cccc1C2C1CC2CCC(C1)N2Cc1ncc[nH]1 (stereo not drawn) [Compound 9l, N-(2-{5-Hydroxy-9-[8-(1H-imidazol-2-ylmethyl)-8-aza-bicyclo[3.2.1]oct-3-yl]-9H-xanthen-3-yl}-phenyl)-acetamide]
Ki: 4.9 nM
